From ChEMBL document CHEMBL1125808, “Studies on the macrocyclic part of the trichothecene satratoxin: partial synthesis and structure-activity relationship” (Bioorg Med Chem Lett, 1991)

Tests used:
[1] = species: Mus musculus; assay: Cytotoxicity was evaluated on mice spleen lymphocytes stimulated by Phaseolus Vulgaris Phytohemagglutininin (PHA) after 72 hours; format: functional; set-up: unit not given here
[2] = species: Mus musculus; assay: Cytotoxicity was evaluated on mice spleen lymphocytes stimulated by Phaseolus Vulgaris Phytohemagglutininin (PHA) after 48 hours; format: functional; set-up: unit not given here
[3] = tested on: Daudi; assay: Concentration of compound to inhibit half of cell growth in malignant human lymphocytes: Daudi lymphoma cells; format: functional, cell-based; set-up: unit not given here
[4] = species: Mus musculus; assay: Cytotoxicity of compound was evaluated on mice spleen lymphocytes stimulated by Phaseolus Vulgaris Phytohemagglutininin (PHA) after 48 hours; format: functional

SMILES	IC50 [1]	IC50 [2]	IC50 [3]	IC50 [4] [M ml-1]
CCOC(=O)/C=C/[C@H]1OCC/C(=C\COCc2ccccc2)[C@@H]1O[Si](C)(C)C(C)(C)C	1.4	0.7	0.6	–
COC(=O)CC(O)[C@H]1OCC/C(=C\COCc2ccccc2)C1O[Si](C)(C)C(C)(C)C (stereo not given in full)	20	20	10	–
CCOC(=O)/C=C/[C@H]1OCC/C(=C\C(=O)OCC)[C@@H]1O[Si](C)(C)C(C)(C)C	17.6	–	9.3	8.8
O=C1CC(O)[C@H]2OCC/C(=C\COCc3ccccc3)C2O1 (stereo not given in full)	13	8.8	3.5	–
CCOC(=O)/C=C/C=C/[C@H]1OCC/C(=C\C(=O)OCC)[C@@H]1O[Si](C)(C)C(C)(C)C	1.1	0.73	2.2	–
